pIC50: −log10 of the molar value. Like-named read-outs stand apart in the source and are kept apart here.
What was measured:
Ag hmg AChE = target: T1, Ag hmg AChE (Anopheles gambiae, UniProt Q869C3); experiment: Ellman AChE inhibition assay, Anopheles gambiae homogenate (Ag hmg); format: biochemical; conditions: for pIC50: pH 7.8, 10 min preincubation; for Human/Ag IC50 ratio (selectivity for AgAChE over hAChE): range over the two AgAChE sources (Ag hmg, Ag ace-1S); for IC50 ratio (hAChE/Ag hmg): selectivity, values in parenthesis
T1 construct: To prepare the Ag homogenate (Ag hmg) 10 Anopheles gambiae mosquitoes were combined; from tissue; host or cells: whole Anopheles gambiae mosquitoes, crude homogenate supernatant

hAChE = target: T2, hAChE (Homo sapiens, UniProt P22303); experiment: Ellman AChE inhibition assay, recombinant hAChE; format: biochemical
T2 construct: purchased Sigma C1682

Anopheles gambiae = experiment: Live mosquito contact toxicity, WHO filter paper assay; format: in vivo; conditions: for Live Mosquito Contact Toxicity MC for 100% lethality at 24 hr: 1 hr exposure to treated filter paper
Ag ace-1S [1] = target: T3, Ag ace-1S (Anopheles gambiae, UniProt Q869C3); experiment: biochemical
T3 construct: encoding the entire wild type AgAChE protein (ace1, 737 amino acids); made in house; host or cells: Drosophila S2 cells (stably transfected, pMT/V5-His vector), clarified cell lysate

Ag ace-1S [2] = experiment: biochemical; set-up: species or system Anopheles gambiae; conditions: selectivity, values in parenthesis
[3] = Ag WT hmg IC50, WT Anopheles gambiae homogenate
[4] = WT Anopheles gambiae homogenate, read-out: Ag WT hmg IC50
[5] = pH 7.8, 10 min preincubation, read-out: hAChE recomb. IC50
[6] = recombinant Anopheles gambiae AChE, WT (susceptible) strain, read-out: Ag ace-1S IC50

T1 sequence (Q869C3 39-737): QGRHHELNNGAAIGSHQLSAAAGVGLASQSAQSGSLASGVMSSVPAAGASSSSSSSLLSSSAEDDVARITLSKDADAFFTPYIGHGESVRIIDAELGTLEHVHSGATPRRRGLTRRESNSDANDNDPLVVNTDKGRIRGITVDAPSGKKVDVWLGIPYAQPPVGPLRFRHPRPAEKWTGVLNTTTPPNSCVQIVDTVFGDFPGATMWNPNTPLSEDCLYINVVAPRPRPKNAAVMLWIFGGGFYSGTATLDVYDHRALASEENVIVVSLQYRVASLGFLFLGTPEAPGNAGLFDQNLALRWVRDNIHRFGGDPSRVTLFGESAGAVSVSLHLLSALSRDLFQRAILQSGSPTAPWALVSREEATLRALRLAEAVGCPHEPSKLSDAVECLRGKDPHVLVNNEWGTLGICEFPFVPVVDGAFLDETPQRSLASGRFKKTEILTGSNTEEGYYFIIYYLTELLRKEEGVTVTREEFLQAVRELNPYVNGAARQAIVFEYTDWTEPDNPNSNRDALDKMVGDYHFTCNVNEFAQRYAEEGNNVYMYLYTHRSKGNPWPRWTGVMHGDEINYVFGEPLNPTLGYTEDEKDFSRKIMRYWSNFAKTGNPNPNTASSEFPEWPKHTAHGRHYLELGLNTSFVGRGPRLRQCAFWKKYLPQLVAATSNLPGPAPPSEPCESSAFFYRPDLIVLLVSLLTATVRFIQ
T3 sequence (Q869C3 39-737): as above
T2 sequence (P22303 32-614): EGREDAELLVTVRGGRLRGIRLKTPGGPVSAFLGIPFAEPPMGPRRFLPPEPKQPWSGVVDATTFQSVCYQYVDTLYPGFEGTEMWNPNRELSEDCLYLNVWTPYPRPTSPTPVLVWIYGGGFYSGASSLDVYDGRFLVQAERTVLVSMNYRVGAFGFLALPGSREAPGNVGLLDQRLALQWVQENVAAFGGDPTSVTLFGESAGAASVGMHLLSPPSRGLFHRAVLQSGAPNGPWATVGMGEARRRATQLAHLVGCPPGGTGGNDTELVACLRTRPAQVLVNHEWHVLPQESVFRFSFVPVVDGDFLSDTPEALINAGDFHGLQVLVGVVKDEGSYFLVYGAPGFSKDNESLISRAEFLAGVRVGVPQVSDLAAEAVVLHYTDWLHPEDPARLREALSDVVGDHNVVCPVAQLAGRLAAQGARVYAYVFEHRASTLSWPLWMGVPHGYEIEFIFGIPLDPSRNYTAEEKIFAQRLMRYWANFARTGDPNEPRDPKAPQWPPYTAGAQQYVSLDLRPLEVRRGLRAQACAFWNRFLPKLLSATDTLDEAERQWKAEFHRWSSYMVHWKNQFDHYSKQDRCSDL

| Molecule | pIC50 (Ag hmg AChE; [3]) | pIC50 (hAChE) | Live Mosquito Contact Toxicity MC for 100% lethality at 24 hr (Anopheles gambiae) [ug/cm^2] | pIC50 (Ag ace-1S [1]) | lethality at 24 h (Anopheles gambiae; at 11 ug/cm^2, 1 hr exposure) | other results |
| --- | --- | --- | --- | --- | --- | --- |
| CNC(=O)Oc1ccccc1SCC(C)C [Compound 6b, 2-(isobutylthio)phenyl-N-methylcarbamate] | 6.96 | 5.09 | 11 |  |  | Human/Ag IC50 ratio (selectivity for AgAChE over hAChE) (Ag hmg AChE): 74 fold |
| C=C(Br)CSc1ccccc1OC(=O)NC [Compound 15b, 2-(2-bromoallylthio)phenyl-N-methylcarbamate] | 6.61 | 5.78 |  | 6.76 |  | lethality at 24 h (Anopheles gambiae; at 56 ug/cm^2, 1 hr exposure): 93% lethal at 56 |
| C=C(C)CSc1ccccc1OC(=O)NCCCCCC [Compound 8d, 2-(3-thio-2-methylpropenyl)phenyl-N-hexylcarbamate] | < 4.00 | 5.16 |  |  | None at 11 |  |
| C=C(C)CSc1ccccc1OC(=O)NC [Compound 8b, 2-(2-methylallylthio)phenyl-N-methylcarbamate] | 6.91 | 5.02 | 2.8 | 6.78 |  |  |
| CNC(=O)Oc1cccc2c1OC(C)(C)O2 [Bendiocarb, reference compound] |  |  | 0.55 | 6.85 |  | pIC50 (Ag hmg AChE; [4]): 7.19; IC50 ratio (hAChE/Ag hmg) (Ag hmg AChE): (4.1x); pIC50 (hAChE; [5]): 6.57; IC50 ratio (hAChE/Ag ace-1S) (Ag ace-1S [2]): (1.9x) |
| CCC(C)CSc1ccccc1OC(=O)NC (stereo not shown) [Compound 4b, 2-(2-methylbutylthio)phenyl-N-methylcarbamate] | 7.52 | 5.45 |  | 7.57 | 70% at 11 |  |
| CC(C)NC(=O)Oc1cccc(C(C)(C)C)c1 [Compound 1d, N-isopropyl-3-tert-butylphenylcarbamate] | 3.27 | 3.74 |  |  |  |  |
| C=C(Br)COc1ccccc1OC(=O)NC [Compound 21b, 2-(2-bromoallyloxy)phenyl-N-methylcarbamate] | 5.97 | 4.50 | 11 | 6.13 |  |  |
| CNC(=O)Oc1ccccc1SCC=C(C)C [Compound 18b, 2-(3-methylbut-2-enylthio)phenyl-N-methylcarbamate] | 5.93 | 5.57 | 56 | 6.39 |  |  |
| CCNC(=O)Oc1cccc(C(C)(C)C)c1 [Compound 1h] | 5.40 | 5.62 | 11 |  |  |  |
| CNC(=O)Oc1ccccc1OCC1CCCCC1 [Compound 10b, 2-(cyclohexylmethoxy)phenyl-N-methylcarbamate] | < 4.00 | < 4.00 |  |  |  |  |
| CCCCN(CCCC)SN(C)C(=O)Oc1cccc2c1OC(C)(C)C2 [Carbosulfan, reference compound] |  |  |  | 4.96 |  | pIC50 (Ag hmg AChE; [4]): 5.39; pIC50 (hAChE; [5]): 5.23 |
| C/C=C/CSc1ccccc1OC(=O)NC [Compound 17b, (E)-2-(but-2-enylthio)phenyl-N-methylcarbamate] | 7.24 | 6.31 |  | 7.17 |  | lethality at 24 h (Anopheles gambiae; at 5.6 ug/cm^2, 1 hr exposure): 93% lethal at 5.6 |
| CNC(=O)Oc1ccccc1SC(C)C [Compound 5b, 2-(isopropylthio)phenyl-N-methylcarbamate] | 7.48 | 6.03 | 2.8 |  |  |  |
| CNC(=O)Oc1ccccc1SCC1CCCC1 [Compound 11b, 2-(cyclopentylmethylthio)phenyl-N-methylcarbamate] | 5.97 | 5.16 |  | 6.41 |  |  |
| CNC(=O)Oc1cccc2c1OC(C)(C)C2 [Carbofuran, reference compound] |  |  |  | 7.31 |  | pIC50 (Ag hmg AChE; [4]): 7.66; pIC50 (hAChE; [5]): 7.21 |
| C=C(C)CSc1ccccc1OC(=O)N(C)C [Compound 8e, 2-(3-thio-2-methylpropenyl)phenyl-N,N-dimethylcarbamate] | 5.24 | 4.99 |  |  | None at 11 |  |
| CCC(CC)CSc1ccccc1OC(=O)NC [Compound 1b, 2-(2-ethylbutylthio)phenyl-N-methylcarbamate] | 8.52 | 5.44 |  | 8.54 | 27% at 11 | Human/Ag IC50 ratio (selectivity for AgAChE over hAChE) (Ag hmg AChE): 1200 fold |
| CNC(=O)ON=C(C)SC [Methomyl, reference compound] |  |  | 2.7 | 5.75 |  | pIC50 (Ag hmg AChE; [4]): 6.15; IC50 ratio (hAChE/Ag hmg) (Ag hmg AChE): (0.87x); pIC50 (hAChE; [5]): 6.20; IC50 ratio (hAChE/Ag ace-1S) (Ag ace-1S [2]): (0.36x) |
| CNC(=O)Oc1ccccc1OCC1CCCC1 [Compound 12b, 2-(cyclopentylmethoxy)phenyl-N-methylcarbamate] | 4.61 | < 4.00 |  |  |  |  |

| Molecule | pIC50 (Ag hmg AChE; [3]) | pIC50 (hAChE) | Live Mosquito Contact Toxicity MC for 100% lethality at 24 hr (Anopheles gambiae) [ug/cm^2] | pIC50 (Ag ace-1S [1]) | lethality at 24 h (Anopheles gambiae; at 11 ug/cm^2, 1 hr exposure) | other results |
| --- | --- | --- | --- | --- | --- | --- |
| CNC(=O)Oc1ccccc1SCC1CCCCC1 [Compound 9b, 2-(cyclohexylmethylthio)phenyl-N-methylcarbamate] | 4.76 | 4.97 |  |  |  |  |
| CC[Si](C)(C)c1cccc(OC(=O)NC)c1 [Compound 3a, N-methyl 3-ethyldimethylsilylphenyl carbamate] | 8.57 | 6.55 | 11 | 8.66 |  | IC50 ratio (hAChE/Ag hmg) (Ag hmg AChE): (110x); IC50 ratio (hAChE/Ag ace-1S) (Ag ace-1S [2]): (130x) |
| C=C(C)CSc1ccccc1OC(=O)NCC [Compound 8c, 2-(3-thio-2-methylpropenyl)phenyl-N-ethylcarbamate] | 4.89 | 4.27 |  |  | None at 11 |  |
| 2-isopropylphenyl-N-methylcarbamate [Compound 22b] |  |  | 56 |  |  | pIC50 (Ag hmg AChE; [4]): 6.29; IC50 ratio (hAChE/Ag hmg) (Ag hmg AChE): (8.8x); pIC50 (hAChE; [5]): 5.34; pIC50 (Ag ace-1S [1]; [6]): 6.37; IC50 ratio (hAChE/Ag ace-1S) (Ag ace-1S [2]): (11x) |
| C=C(C)COc1ccccc1OC(=O)NC [Compound 20b, 2-(2-methylallyloxy)phenyl-N-methylcarbamate] | 5.82 | 4.16 |  |  | 93% lethality at 11 |  |
| CNC(=O)Oc1cccc(-c2ccccc2)c1 [Compound 6a] | 4.74 | 4.41 | 56 | 4.92 |  | IC50 ratio (hAChE/Ag hmg) (Ag hmg AChE): (2.1x); IC50 ratio (hAChE/Ag ace-1S) (Ag ace-1S [2]): (3.2x) |
| CCC(CC)COc1ccccc1OC(=O)NC [Compound 2b, 2-(2-ethylbutoxy)phenyl-N-methylcarbamate] | 7.16 | 4.01 |  | 8.00 | 27% | Human/Ag IC50 ratio (selectivity for AgAChE over hAChE) (Ag hmg AChE): 1,400-9.900 fold; lethality at 24 h, +PBO (Anopheles gambiae; at 11 ug/cm^2, +PBO): 53% |
| CNC(=O)Oc1cccc(-c2cn(Cc3ccccc3)nn2)c1 [Compound 13a, N-methyl 3-(1-benzyl-1H-1,2,3-triazol-4-yl)phenyl carbamate] | 3.47 | < 4.00 |  |  | None at 11 |  |
| C=C(Cl)CSc1ccccc1OC(=O)NC [Compound 14b, 2-(2-chloroallylthio)phenyl-N-methylcarbamate] | 6.94 | 5.51 | 11 | 6.58 |  |  |
| C#CCNC(=O)Oc1cccc(C(C)(C)C)c1 [Compound 1e, N-propargyl 3-t-butylphenyl carbamate] | 6.47 | 6.69 | 56 |  |  |  |
| N-methyl-3-fluoro-5-trifluoromethylphenylcarbamate [Compound 12a] |  |  |  |  | None at 11 | pIC50 (Ag hmg AChE; [4]): < 4.00; pIC50 (hAChE; [5]): < 4.00; pIC50 (Ag ace-1S [1]; [6]): 4.11 |
| CCC(CC)C[S+]([O-])c1ccccc1OC(=O)NC (stereo not shown) [Compound 3b, 2-(2-ethylbutylsulfinyl)phenyl-N-methylcarbamate] | 4.29 | 4.26 |  |  | 0% at 11 |  |
| CNC(=O)Oc1ccccc1SCC(C)(C)C [Compound 7b, 2-(neopentylthio)phenyl-N-methylcarbamate] | 6.14 | 4.86 |  | 6.54 | 33% at 11 |  |
| CN(C)C(=O)Oc1cccc(C(C)(C)C)c1 [Compound 1g] | 5.23 | 5.39 |  |  | 20% lethal at 11 |  |
| CCCCCCNC(=O)Oc1cccc(C(C)(C)C)c1 [Compound 1c] | < 4.00 | 6.16 |  |  | 13% lethal at 11 |  |
| C=CCSc1ccccc1OC(=O)NC [Compound 16b, 2-(allylthio)phenyl-N-methylcarbamate] | 6.81 | 5.80 | 5.6 | 7.44 |  |  |
| CNC(=O)Oc1ccccc1OCC(C)C [Compound 13b, 2-isobutoxyphenyl-N-methylcarbamate] | 5.69 | 4.17 |  | 6.19 |  | lethality at 24 h (Anopheles gambiae; at 2.8 ug/cm^2, 1 hr exposure): 100% at 2.8 |
| CNC(=O)Oc1ccccc1SCc1ccccc1 [Compound 19b, 2-(benzylthio)phenyl-N-methylcarbamate] | 5.16 | 4.81 |  | 5.42 |  |  |
| CC(C)(C)c1cccc(OC(=O)NCc2cn(Cc3ccccc3)nn2)c1 [Compound 1f, N-(1-benzyl-1H-1,2,3-triazol-4-yl)methyl 3-t-butylphenyl carbamate] | < 5.00 | < 5.00 | 56 |  |  |  |
